US7524964B2, “Tetrahydrothiopyrano pyrazole cannabinoid modulators” (Janssen Pharmaceutica NV, priority 2005, dated 2009)
Where two headings read alike, the source gives them in different places.

Key:
human CB-2 receptor = target: T1, human CB-2 receptor (Homo sapiens, UniProt P34972); experiment: Binding assay, cannabinoid CB2 receptor ([3H]-CP-55,940 displacement); details: read-out: CB2 binding percent inhibition
T1 construct: expressed in transfected cells; host or cells: SK-N-MC cells, pcDNA3 CB-2 (human), semi-purified membranes
T1 sequence (P34972 whole entry): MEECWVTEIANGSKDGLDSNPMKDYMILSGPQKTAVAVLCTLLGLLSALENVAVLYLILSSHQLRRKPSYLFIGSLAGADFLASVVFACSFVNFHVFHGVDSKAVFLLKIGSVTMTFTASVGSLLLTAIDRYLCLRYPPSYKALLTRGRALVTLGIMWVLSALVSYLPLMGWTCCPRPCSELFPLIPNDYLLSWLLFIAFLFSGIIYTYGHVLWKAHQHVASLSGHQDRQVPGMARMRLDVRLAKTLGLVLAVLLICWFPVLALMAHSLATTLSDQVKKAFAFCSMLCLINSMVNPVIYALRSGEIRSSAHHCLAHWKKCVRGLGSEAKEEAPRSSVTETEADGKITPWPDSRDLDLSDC
Outline: (§1)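 Displacement of 0.2 nM [3H]-CP-55,940 (non-specific: 10 uM WIN 55,212) was run on semi-purified membranes of transfected SK-N-MC cells carrying human CB-1 or CB-2, 90 min, 30° C, pH 7.5. Scintillation counting; IC50 by linear regression, else % inhibition at 0.2, 1 or 10 μM.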

human CB1 receptor = human CB1 receptor (Homo sapiens, UniProt P21554); experiment: Binding assay, cannabinoid CB1 receptor ([3H]-CP-55,940 displacement); parameters: expressed in transfected cells; host or cells: SK-N-MC cells, pcDNA3 CB-1 (human), semi-purified membranes; details: for inhibition at 0.2 µM: test concentration 0.2 μM (superscript a), read-out: CB1 binding percent inhibition
Sequence of human CB1 receptor (P21554 whole entry): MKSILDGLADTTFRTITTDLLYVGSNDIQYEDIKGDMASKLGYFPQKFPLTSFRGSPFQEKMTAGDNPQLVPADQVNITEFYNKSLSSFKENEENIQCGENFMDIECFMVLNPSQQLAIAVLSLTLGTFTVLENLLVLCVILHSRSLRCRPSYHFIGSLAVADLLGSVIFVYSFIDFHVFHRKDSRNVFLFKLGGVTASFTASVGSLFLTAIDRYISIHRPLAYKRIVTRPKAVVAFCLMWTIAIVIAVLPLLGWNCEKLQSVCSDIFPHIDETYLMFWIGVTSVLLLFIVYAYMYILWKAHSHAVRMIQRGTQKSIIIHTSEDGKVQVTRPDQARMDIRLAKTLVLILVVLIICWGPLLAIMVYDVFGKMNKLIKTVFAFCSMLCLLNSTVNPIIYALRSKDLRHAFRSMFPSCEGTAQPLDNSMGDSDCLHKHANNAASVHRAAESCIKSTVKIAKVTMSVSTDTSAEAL
Outline: as §1

[1] = test concentration 0.2 μM (superscript a)

SMILES | inhibition at 0.2 µM (human CB-2 receptor; [1]) | inhibition at 0.2 µM (human CB1 receptor) | IC50 (human CB1 receptor) | inhibition at 0.2 µM (human CB-2 receptor)
O=C(c1nn(-c2ccc(Cl)cc2Cl)c2c1CSC/C2=C\c1ccc(F)cc1)N1CCCCC1 [Cpd 55, (7Z)-[1-(2,4-dichloro-phenyl)-7-(4-fluoro-benzylidene)-1,4,6,7-tetrahydro-thiopyrano[4,3-c]pyrazol-3-yl]-piperidin-1-yl-methanone] | 10% | 52% |  | 
O=C(NN1CCCC1)c1nn(-c2ccc(Cl)cc2Cl)c2c1CSC/C2=C\c1ccc(F)cc1 [Cpd 56, (7Z)-1-(2,4-dichloro-phenyl)-7-(4-fluoro-benzylidene)-1,4,6,7-tetrahydro-thiopyrano[4,3-c]pyrazole-3-carboxylic acid pyrrolidin-1-ylamide] | 15% |  | 35 nM | 
O=C(c1nn(-c2ccc(Cl)cc2Cl)c2c1CSC/C2=C\c1ccc(F)cc1)N1CCCC1 [Cpd 57, (7Z)-[1-(2,4-dichloro-phenyl)-7-(4-fluoro-benzylidene)-1,4,6,7-tetrahydro-thiopyrano[4,3-c]pyrazol-3-yl]-pyrrolidin-1-yl-methanone] | 21% | 56% |  | 
O=C(N[C@@H]1c2ccccc2C[C@@H]1O)c1nn(-c2ccc(Cl)cc2Cl)c2c1CSC/C2=C\c1ccc(F)cc1 [Cpd 58, (7Z)-1-(2,4-dichloro-phenyl)-7-(4-fluoro-benzylidene)-1,4,6,7-tetrahydro-thiopyrano[4,3-c]pyrazole-3-carboxylic acid [(1R,2S)-2-hydroxy-indan-1-yl]-amide] |  |  | 40 nM | 25%
O=C(N[C@H]1c2ccccc2C[C@H]1O)c1nn(-c2ccc(Cl)cc2Cl)c2c1CSC/C2=C\c1ccc(F)cc1 [Cpd 59, (7Z)-1-(2,4-dichloro-phenyl)-7-(4-fluoro-benzylidene)-1,4,6,7-tetrahydro-thiopyrano[4,3-c]pyrazole-3-carboxylic acid [(1S,2R)-2-hydroxy-indan-1-yl]-amide] |  |  | 42 nM | 25%
O=C(N[C@@H]1CCC[C@H]1O)c1nn(-c2ccc(Cl)cc2Cl)c2c1CSC/C2=C\c1ccc(F)cc1 [Cpd 60, (7Z)-1-(2,4-dichloro-phenyl)-7-(4-fluoro-benzylidene)-1,4,6,7-tetrahydro-thiopyrano[4,3-c]pyrazole-3-carboxylic acid [(1R,2R)-2-hydroxy-cyclopentyl]-amide] | 17% | 60% |  | 
O=C(N[C@@H]1CCCC[C@H]1O)c1nn(-c2ccc(Cl)cc2Cl)c2c1CSC/C2=C\c1ccc(F)cc1 [Cpd 61, (7Z)-1-(2,4-dichloro-phenyl)-7-(4-fluoro-benzylidene)-1,4,6,7-tetrahydro-thiopyrano[4,3-c]pyrazole-3-carboxylic acid [(1R,2R)-2-hydroxy-cyclohexyl]-amide] | 31% | 60% |  | 
C[C@H](NC(=O)c1nn(-c2ccc(Cl)cc2Cl)c2c1CSC/C2=C\c1ccc(F)cc1)c1ccccc1 [Cpd 62, (7Z)-1-(2,4-dichloro-phenyl)-7-(4-fluoro-benzylidene)-1,4,6,7-tetrahydro-thiopyrano[4,3-c]pyrazole-3-carboxylic acid [(1S)-1-phenyl-ethyl]-amide] | 17% |  | 48 nM | 
C[C@@H](NC(=O)c1nn(-c2ccc(Cl)cc2Cl)c2c1CSC/C2=C\c1ccc(F)cc1)c1ccccc1 [Cpd 63, (7Z)-1-(2,4-dichloro-phenyl)-7-(4-fluoro-benzylidene)-1,4,6,7-tetrahydro-thiopyrano[4,3-c]pyrazole-3-carboxylic acid [(1R)-1-phenyl-ethyl]-amide] | 6% |  | 9 nM | 
CC(C)(C)OC(=O)N1CCN(NC(=O)c2nn(-c3ccc(Cl)cc3Cl)c3c2CSC/C3=C\c2ccc(F)cc2)CC1 [Cpd 64, 4-{[(7Z)-1-(2,4-dichloro-phenyl)-7-(4-fluoro-benzylidene)-1,4,6,7-tetrahydro-thiopyrano[4,3-c]pyrazole-3-carbonyl]-amino}-piperazine-1-carboxylic acid tert-butyl ester] |  |  | 24 nM | 0%
C[C@H](NC(=O)c1nn(-c2ccc(Cl)cc2Cl)c2c1CS(=O)(=O)C/C2=C\c1ccc(F)cc1)c1ccccc1 [Cpd 65, (7Z)-1-(2,4-dichloro-phenyl)-7-(4-fluoro-benzylidene)-5,5-dioxo-4,5,6,7-tetrahydro-1H-5λ^6-thiopyrano[4,3-c]pyrazole-3-carboxylic acid [(1S)-1-phenyl-ethyl]-amide] | 17% |  | 5 nM | 
C[C@@H](NC(=O)c1nn(-c2ccc(Cl)cc2Cl)c2c1CS(=O)(=O)C/C2=C\c1ccc(F)cc1)c1ccccc1 [Cpd 66, (7Z)-1-(2,4-dichloro-phenyl)-7-(4-fluoro-benzylidene)-5,5-dioxo-4,5,6,7-tetrahydro-1H-5λ^6-thiopyrano[4,3-c]pyrazole-3-carboxylic acid [(1R)-1-phenyl-ethyl]-amide] | 24% |  | 4 nM | 
O=C(N[C@@H]1CCC[C@H]1O)c1nn(-c2ccc(Cl)cc2Cl)c2c1CS(=O)(=O)C/C2=C\c1ccc(F)cc1 [Cpd 67, (7Z)-1-(2,4-dichloro-phenyl)-7-(4-fluoro-benzylidene)-5,5-dioxo-4,5,6,7-tetrahydro-1H-5λ^6-thiopyrano[4,3-c]pyrazole-3-carboxylic acid [(1R,2R)-2-hydroxy-cyclopentyl]-amide] | 15% | 46% |  | 
O=C(N[C@H]1CCCC[C@@H]1O)c1nn(-c2ccc(Cl)cc2Cl)c2c1CS(=O)(=O)C/C2=C\c1ccc(F)cc1 [Cpd 68, (7Z)-1-(2,4-dichloro-phenyl)-7-(4-fluoro-benzylidene)-5,5-dioxo-4,5,6,7-tetrahydro-1H-5λ^6-thiopyrano[4,3-c]pyrazole-3-carboxylic acid [(1S,2S)-2-hydroxy-cyclohexyl]-amide] | 19% | 52% |  | 
O=C(N[C@@H]1c2ccccc2C[C@@H]1O)c1nn(-c2ccc(Cl)cc2Cl)c2c1CS(=O)(=O)C/C2=C\c1ccc(F)cc1 [Cpd 69, (7Z)-1-(2,4-dichloro-phenyl)-7-(4-fluoro-benzylidene)-5,5-dioxo-4,5,6,7-tetrahydro-1H-5λ^6-thiopyrano[4,3-c]pyrazole-3-carboxylic acid [(1R,2S)-2-hydroxy-indan-1-yl]-amide] | 10% |  | 23 nM | 
O=C(N[C@H]1c2ccccc2C[C@H]1O)c1nn(-c2ccc(Cl)cc2Cl)c2c1CS(=O)(=O)C/C2=C\c1ccc(F)cc1 [Cpd 70, (7Z)-1-(2,4-dichloro-phenyl)-7-(4-fluoro-benzylidene)-5,5-dioxo-4,5,6,7-tetrahydro-1H-5λ^6-thiopyrano[4,3-c]pyrazole-3-carboxylic acid [(1S,2R)-2-hydroxy-indan-1-yl]-amide] | 19% |  | 12 nM | 
NC(=O)c1nn(-c2ccc(Cl)cc2Cl)c2c1CS(=O)(=O)C/C2=C\c1ccc(F)cc1 [Cpd 71, (7Z)-1-(2,4-dichloro-phenyl)-7-(4-fluoro-benzylidene)-5,5-dioxo-4,5,6,7-tetrahydro-1H-5λ^6-thiopyrano[4,3-c]pyrazole-3-carboxylic acid amide] | 13% | 18% |  | 
O=C(NCc1ccccn1)c1nn(-c2ccc(Cl)cc2Cl)c2c1CSC/C2=C\c1ccc(F)cc1 [Cpd 72, (7Z)-1-(2,4-dichloro-phenyl)-7-(4-fluoro-benzylidene)-1,4,6,7-tetrahydro-thiopyrano[4,3-c]pyrazole-3-carboxylic acid (pyridin-2-ylmethyl)-amide] | 10% | 48% |  | 
